Data published in PMC11062922 (Nature Chemical Biology, 2023).

Legend:
ABL2 [1] = molecular target: T1, ABL2 (Homo sapiens, UniProt P42684); assay: Kinobeads two-dose competition binding: ABL2; details: sheet CATDS matrix 2; Gene Name ABL2
T1 construct: endogenous in cells

ACOX1 = molecular target: T2, ACOX1 (Homo sapiens, UniProt Q15067); assay: Kinobeads two-dose competition binding: ACOX1; details: sheet CATDS matrix 2; Gene Name ACOX1;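 further: competition of compounds with immobilized broad-spectrum kinase inhibitor beads in cell lysate at 100 and 1,000 nM, 45 min at 4 °C, bead-bound protein quantified by label-free MS versus DMSO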
T2 construct: endogenous in cells
T2 sequence (Q15067 1-660): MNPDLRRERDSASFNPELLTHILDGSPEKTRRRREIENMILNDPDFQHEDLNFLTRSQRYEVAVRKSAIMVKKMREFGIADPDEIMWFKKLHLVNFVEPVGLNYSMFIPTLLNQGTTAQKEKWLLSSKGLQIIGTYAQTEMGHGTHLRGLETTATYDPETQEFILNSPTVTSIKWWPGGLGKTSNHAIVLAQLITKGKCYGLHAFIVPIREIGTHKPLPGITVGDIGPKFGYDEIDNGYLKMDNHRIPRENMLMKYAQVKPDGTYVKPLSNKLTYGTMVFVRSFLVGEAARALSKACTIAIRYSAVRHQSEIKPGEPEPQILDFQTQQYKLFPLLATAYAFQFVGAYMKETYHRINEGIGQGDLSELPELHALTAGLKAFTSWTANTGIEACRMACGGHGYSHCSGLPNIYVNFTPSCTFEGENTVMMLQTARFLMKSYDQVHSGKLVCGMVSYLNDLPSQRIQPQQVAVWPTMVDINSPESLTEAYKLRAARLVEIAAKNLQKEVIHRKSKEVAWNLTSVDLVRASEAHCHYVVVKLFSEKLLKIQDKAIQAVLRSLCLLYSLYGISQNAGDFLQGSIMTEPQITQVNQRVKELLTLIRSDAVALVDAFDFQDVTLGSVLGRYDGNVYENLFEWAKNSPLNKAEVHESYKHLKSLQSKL

[2] = test system: endogenous kinases and other proteins enriched by Kinobeads from mixed lysates of K-562, COLO-205, MV-4-11, SK-N-BE(2) and OVCAR-8; assay: Kinobeads competition binding profiling, two doses (100 nM and 1 µM); parameters: species or system human; details: for selectivity in the Kinobeads assay (CATDSmost potent): in words; for detection of the designated target by Kinobeads: previous chemical probes;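 on all read-outs here: inhibitor preincubated 45 min at 4 °C in cell lysate, then bead pulldown. Bound protein quantified by label-free mass spectrometry relative to DMSO vehicle control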
AAK1 = molecular target: T3, AAK1 (Homo sapiens, UniProt Q2M2I8); assay: Kinobeads two-dose competition binding: AAK1; details: for CATDS: sheet CATDS matrix 2, Gene Name AAK1; for potency estimated from few doses: sheet "Kinobeads Drugmatrix - all", unit inferred, same values below 1000 recur in sheet "nanomolar", read-out: Kinobeads Drugmatrix - all: apparent Kd, AAK1;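 on all read-outs here: kinobeads competition pulldown from cell lysate, compound preincubated 45 min at 4 °C, bead-bound protein measured by label-free mass spectrometry against DMSO vehicle control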
T3 construct: to maximize the representation of endogenous proteins; endogenous in cells
T3 sequence (Q2M2I8 whole entry): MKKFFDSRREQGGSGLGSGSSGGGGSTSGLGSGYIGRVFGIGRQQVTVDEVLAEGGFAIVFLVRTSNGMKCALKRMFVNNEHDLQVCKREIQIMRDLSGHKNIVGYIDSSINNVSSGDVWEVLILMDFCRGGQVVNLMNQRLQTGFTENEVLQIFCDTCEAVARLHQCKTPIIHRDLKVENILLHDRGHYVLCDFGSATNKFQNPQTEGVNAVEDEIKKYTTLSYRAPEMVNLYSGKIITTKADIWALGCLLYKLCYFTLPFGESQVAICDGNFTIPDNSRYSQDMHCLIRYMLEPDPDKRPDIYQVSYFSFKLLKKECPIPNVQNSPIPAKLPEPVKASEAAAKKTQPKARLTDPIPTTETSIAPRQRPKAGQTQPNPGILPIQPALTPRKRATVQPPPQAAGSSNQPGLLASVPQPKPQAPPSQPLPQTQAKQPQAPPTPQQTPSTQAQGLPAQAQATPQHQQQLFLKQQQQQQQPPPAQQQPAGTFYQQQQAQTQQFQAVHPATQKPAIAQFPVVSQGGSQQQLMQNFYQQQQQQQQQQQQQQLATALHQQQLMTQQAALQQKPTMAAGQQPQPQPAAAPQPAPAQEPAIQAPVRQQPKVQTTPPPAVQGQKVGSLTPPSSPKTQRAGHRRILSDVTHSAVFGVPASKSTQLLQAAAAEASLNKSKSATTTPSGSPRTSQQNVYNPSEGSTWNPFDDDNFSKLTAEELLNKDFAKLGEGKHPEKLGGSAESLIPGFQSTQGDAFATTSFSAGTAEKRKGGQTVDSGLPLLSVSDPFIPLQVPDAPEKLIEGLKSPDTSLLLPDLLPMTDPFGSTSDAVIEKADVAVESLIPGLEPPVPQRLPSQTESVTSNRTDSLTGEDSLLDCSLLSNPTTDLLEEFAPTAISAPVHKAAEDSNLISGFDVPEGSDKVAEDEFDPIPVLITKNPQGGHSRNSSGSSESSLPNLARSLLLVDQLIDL

ACAD11 = molecular target: T4, ACAD11 (Homo sapiens, UniProt Q709F0); assay: Kinobeads two-dose competition binding: ACAD11; details: sheet CATDS matrix 2; Gene Name ACAD11
T4 construct: endogenous in cells
T4 sequence (Q709F0 1-780): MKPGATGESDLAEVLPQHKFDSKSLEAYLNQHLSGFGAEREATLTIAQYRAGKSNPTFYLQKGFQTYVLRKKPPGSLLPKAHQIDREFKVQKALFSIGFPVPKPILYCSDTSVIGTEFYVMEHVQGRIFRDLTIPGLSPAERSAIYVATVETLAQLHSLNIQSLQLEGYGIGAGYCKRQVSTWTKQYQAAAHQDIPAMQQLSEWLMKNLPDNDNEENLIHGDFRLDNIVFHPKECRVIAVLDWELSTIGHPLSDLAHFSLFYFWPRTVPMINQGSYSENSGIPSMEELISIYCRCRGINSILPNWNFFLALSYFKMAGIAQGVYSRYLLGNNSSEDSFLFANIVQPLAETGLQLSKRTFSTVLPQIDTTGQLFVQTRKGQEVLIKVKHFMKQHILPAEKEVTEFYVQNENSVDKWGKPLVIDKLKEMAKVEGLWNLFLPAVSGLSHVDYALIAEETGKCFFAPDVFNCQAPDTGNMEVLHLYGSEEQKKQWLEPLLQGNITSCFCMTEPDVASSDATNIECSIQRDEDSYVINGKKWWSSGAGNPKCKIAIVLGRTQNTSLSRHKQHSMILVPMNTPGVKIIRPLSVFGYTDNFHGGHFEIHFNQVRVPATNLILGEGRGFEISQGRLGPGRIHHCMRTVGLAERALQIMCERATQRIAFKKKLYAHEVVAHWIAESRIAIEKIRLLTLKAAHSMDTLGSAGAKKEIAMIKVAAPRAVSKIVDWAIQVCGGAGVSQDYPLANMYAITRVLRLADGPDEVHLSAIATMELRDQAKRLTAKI

ABL1 [3] = molecular target: T5, ABL1 (Homo sapiens, UniProt P00519); assay: Kinobeads two-dose competition binding: ABL1; details: sheet CATDS matrix 2; Gene Name ABL1
T5 sequence (P00519 28-1130 limits assumed): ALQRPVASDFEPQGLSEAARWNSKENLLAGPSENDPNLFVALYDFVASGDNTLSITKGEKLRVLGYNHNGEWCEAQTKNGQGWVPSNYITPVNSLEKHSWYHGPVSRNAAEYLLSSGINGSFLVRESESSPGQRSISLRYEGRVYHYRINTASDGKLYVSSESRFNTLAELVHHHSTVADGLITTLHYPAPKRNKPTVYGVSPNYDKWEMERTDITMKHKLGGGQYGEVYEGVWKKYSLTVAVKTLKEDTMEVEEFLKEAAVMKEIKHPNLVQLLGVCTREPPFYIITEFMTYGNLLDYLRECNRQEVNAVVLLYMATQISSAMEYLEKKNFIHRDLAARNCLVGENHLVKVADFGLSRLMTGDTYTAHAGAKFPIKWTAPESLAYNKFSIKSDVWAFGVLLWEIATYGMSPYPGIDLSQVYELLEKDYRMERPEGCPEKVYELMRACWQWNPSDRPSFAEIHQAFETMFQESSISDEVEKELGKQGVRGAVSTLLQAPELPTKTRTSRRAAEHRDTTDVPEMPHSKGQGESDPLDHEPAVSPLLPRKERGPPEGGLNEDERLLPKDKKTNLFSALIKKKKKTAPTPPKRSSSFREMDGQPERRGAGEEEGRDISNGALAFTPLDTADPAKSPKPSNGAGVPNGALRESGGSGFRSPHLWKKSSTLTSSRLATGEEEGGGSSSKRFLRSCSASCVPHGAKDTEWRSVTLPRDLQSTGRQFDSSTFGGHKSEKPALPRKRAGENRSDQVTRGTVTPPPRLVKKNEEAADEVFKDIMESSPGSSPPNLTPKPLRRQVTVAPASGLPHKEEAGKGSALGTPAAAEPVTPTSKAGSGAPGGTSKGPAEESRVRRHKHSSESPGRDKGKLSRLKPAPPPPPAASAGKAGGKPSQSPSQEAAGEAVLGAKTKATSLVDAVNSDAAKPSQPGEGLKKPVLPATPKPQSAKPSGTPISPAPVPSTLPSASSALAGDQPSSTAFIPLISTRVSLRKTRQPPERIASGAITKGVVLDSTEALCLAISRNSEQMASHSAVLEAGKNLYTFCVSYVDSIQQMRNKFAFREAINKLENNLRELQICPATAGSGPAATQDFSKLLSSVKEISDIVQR

ABL2 [4] = molecular target: T1, ABL2; assay: Kinobeads two-dose competition binding: ABL2; details: sheet "Kinobeads Drugmatrix - all"; unit inferred; read-out: Kinobeads Drugmatrix - all: apparent Kd, ABL2
ABL1 [5] = molecular target: T5, ABL1; assay: Kinobeads two-dose competition binding: ABL1; details: sheet "Kinobeads Drugmatrix - all"; unit inferred; read-out: Kinobeads Drugmatrix - all: apparent Kd, ABL1

T1 sequence (P42684 whole entry): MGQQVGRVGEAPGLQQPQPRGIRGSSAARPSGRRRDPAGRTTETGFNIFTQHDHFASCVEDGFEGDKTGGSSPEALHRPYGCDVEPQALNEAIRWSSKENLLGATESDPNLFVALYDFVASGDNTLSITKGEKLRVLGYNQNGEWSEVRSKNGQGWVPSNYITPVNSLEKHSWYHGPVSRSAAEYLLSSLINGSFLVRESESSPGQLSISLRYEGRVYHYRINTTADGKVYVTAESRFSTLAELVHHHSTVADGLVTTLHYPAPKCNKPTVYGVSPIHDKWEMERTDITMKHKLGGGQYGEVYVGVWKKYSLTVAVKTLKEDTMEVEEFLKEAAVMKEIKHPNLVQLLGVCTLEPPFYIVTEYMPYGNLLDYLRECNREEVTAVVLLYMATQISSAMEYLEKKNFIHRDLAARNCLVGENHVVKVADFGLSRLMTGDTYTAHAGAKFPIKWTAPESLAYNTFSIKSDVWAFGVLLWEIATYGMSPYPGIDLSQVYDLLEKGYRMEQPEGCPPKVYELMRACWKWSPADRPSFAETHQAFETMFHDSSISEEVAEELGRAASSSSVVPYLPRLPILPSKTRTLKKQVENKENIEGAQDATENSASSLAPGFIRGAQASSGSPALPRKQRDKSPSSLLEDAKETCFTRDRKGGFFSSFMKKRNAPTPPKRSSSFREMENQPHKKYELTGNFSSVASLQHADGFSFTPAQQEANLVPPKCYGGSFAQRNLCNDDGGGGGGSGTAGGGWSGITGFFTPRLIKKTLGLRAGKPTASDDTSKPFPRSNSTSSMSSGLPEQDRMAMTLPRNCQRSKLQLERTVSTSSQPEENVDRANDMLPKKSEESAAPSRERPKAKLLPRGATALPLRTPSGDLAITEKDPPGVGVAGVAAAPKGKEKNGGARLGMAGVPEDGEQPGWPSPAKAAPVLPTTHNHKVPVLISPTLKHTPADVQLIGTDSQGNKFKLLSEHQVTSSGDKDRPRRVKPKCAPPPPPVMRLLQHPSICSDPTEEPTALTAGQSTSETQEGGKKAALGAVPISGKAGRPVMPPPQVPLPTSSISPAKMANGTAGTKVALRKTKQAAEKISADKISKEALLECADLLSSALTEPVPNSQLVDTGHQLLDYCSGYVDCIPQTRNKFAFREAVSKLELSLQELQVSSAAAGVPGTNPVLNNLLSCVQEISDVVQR

SMILES	CATDS (ABL2 [1])	CATDS (ACOX1)	selectivity in the Kinobeads assay (CATDSmost potent) [2]	CATDS (AAK1)	CATDS (ACAD11)	CATDS (ABL1 [3])	detection of the designated target by Kinobeads [2]	potency estimated from few doses (ABL2 [4]) [nM]	potency estimated from few doses (AAK1) [nM]	potency estimated from few doses (ABL1 [5]) [nM]	number of targets in the Kinobead assay ([2]; two-dose Kinobeads)	chemical probe criteria (Kdapp < 1 µM and CATDSmost potent > 0.5) ([2]; Kinobeads data)
CCOc1cc(C(=O)N2CCC(N3CCN(C)CC3)CC2)ccc1Nc1ncc2c(n1)N(C1CCCC1)c1ccccc1C(=O)N2C [ERK5-IN-1, reference compound]	0	0	very selective	0	0	0						
CC(C)(C)S(=O)(=O)c1ccc2nccc(Nc3n[nH]c4ccc(F)cc34)c2c1 [GSK583, reference compound]												fulfilled our criteria
Clc1cc(Cl)cc(Nc2ccnc(Nc3cc(Cl)cc(Cl)c3)n2)c1 [GSK175726A]	0.1551	0		0.01178	0	0.026		7.68	460	83.2		
CN1CCc2ccc(Nc3nccc(-c4c(-c5cccc(NC(=O)c6c(F)cccc6F)c5)nc5ccccn45)n3)cc2C1 [GSK1010829B]	0.05238	0		0	0	0		515		> 1000		
CNC(=O)c1ccccc1Nc1nc(Nc2cccc(CS(C)(=O)=O)c2)ncc1C [GSK1520489A]	0.01375	0		0	0	0.01362		389		401		
COc1ccc(Nc2ncc(C#N)c(Nc3ccccc3C(N)=O)n2)cc1N1CCN(C)CC1 [GSK1558669A]	0.008409	0		0.01049	0	0.01209		334	164	112		
CC(=O)N1CCN(c2ccc(Nc3nccc(-c4sc(C(C)C)nc4-c4cccc(NS(=O)(=O)c5ccccc5)c4)n3)cn2)CC1 [GSK1645872A]	0.06803	0		0	0	0.02989		166		746		
CC(C)c1nc(-c2cccc(NS(=O)(=O)c3ccccc3)c2)c(-c2ccnc(Nc3ccc4c(c3)CN(C)CC4)n2)s1 [GSK1649598A]	0.03972	0		0	0	0.02015		93.8		368		
CC(=O)N1CCN(c2ccc(Nc3nccc(-c4sc(C(C)C)nc4-c4cccc(NS(=O)(=O)c5cccc(Cl)c5)c4)n3)cn2)CC1 [GSK1660437A]	0.07869	0		0	0	0		351				
CC(C)c1nc(-c2cccc(NS(=O)(=O)c3c(F)cccc3F)c2)c(-c2ccnc(Nc3ccc(N4CCOCC4)nc3)n2)s1 [GSK1723980B]	0.05939	0		0	0	0.0244		61.3		301		
CC(C)c1nc(-c2ccc(F)c(NS(=O)(=O)c3c(F)cccc3F)c2)c(-c2ccnc(Nc3ccc(N4CCOCC4)nc3)n2)s1 [GSK1804250A]	0.1009	0		0	0	0.03302		126		970		
CC(C)c1nc(-c2cccc(NS(=O)(=O)c3c(F)cccc3F)c2F)c(-c2ccnc(Nc3ccc(N4CCOCC4)nc3)n2)s1 [GSK2008607A]	0.07581	0		0	0	0.02525		101		706		
O=C(O[C@H]1CN[C@H](C#Cc2cc3ncnc(Nc4ccc(OCc5cccc(F)c5)c(Cl)c4)c3s2)C1)N1CCOCC1 [GW869810X]			very selective									
CN1C(=O)c2ccccc2N(C)c2nc(Nc3cnn(C4CCNCC4)c3)ncc21 [XMD-17-51, reference compound]											~50	

Second part, led by results:

CATDS (ABL2 [1])	CATDS (ACOX1)	selectivity in the Kinobeads assay (CATDSmost potent) [2]	CATDS (AAK1)	CATDS (ACAD11)	CATDS (ABL1 [3])	detection of the designated target by Kinobeads [2]	potency estimated from few doses (ABL2 [4]) [nM]	potency estimated from few doses (AAK1) [nM]	potency estimated from few doses (ABL1 [5]) [nM]	number of targets in the Kinobead assay ([2]; two-dose Kinobeads)	SMILES	chemical probe criteria (Kdapp < 1 µM and CATDSmost potent > 0.5) ([2]; Kinobeads data)
						failed to reveal their targets					O=C(NCCO)c1cccc(-c2cc(Nc3ccc(OC(F)(F)F)cc3)ncn2)c1 [GNF-5, reference compound]	
						failed to reveal their targets					COC[C@@H](C)N[C@H]1CC[C@H](Nc2cc(-c3cccc(NCC4(C#N)CCOCC4)n3)c(Cl)cn2)CC1 [NVP-2, reference compound]	
						failed to reveal their targets					CN(C)C/C=C/C(=O)Nc1ccc(C(=O)N2CCC[C@@H](Nc3ncc(Cl)c(-c4c[nH]c5ccccc45)n3)C2)cc1 [THZ531, reference compound]	
		poor selectivity									CCC(=O)Nc1cccc(Oc2nc(Nc3ccc(N4CCN(C)CC4)cc3OC)ncc2Cl)c1 [WZ4003, reference compound]	
